Experimental data published in patent US11090292B2, “Compositions and methods of use of an inappetance-controlling compound” (Aratana Therapeutics, Inc., priority 2012, dated 2021).

How the values were obtained:
[1] = Example 9: clinical observations / toxicological responses; assay type: in vivo; settings: injection 0.75 or 2 mg/kg, oral 2 or 4 mg/kg, once daily
Method: (§1) During the seven day study period, on an at least once-daily basis, each of the cats was monitored for clinical observations, mortality, moribundity, body mass, acceptability/palatability, and food consumption. Serum samples were taken to measure capromorelin concentration, IGF-1 concentration, and cortisol concentration. Serum samples were taken on days 1 and 4 immediately prior to dosing (0 minutes) and 30, 60, 90, 120, 240, 360, and/or 480 minutes post dosing. Additional serum samples were taken at 8 AM on Day 7 of the study to assess long-term impact of the active treatments.

[2] = Example 4: capromorelin concentration in serum; assay type: in vivo; settings: Days 1 and 7, 3 mg/kg once or twice daily
Method: (§2) A controlled, seven-day study was performed to assess the impact of different capromorelin-dosing regimens on the production of IGF-1, GH, and cortisol. The different capromorelin-dosing regimens were also assessed for the impact on food intake and changes in body mass.
(§3) […] were divided into one of three treatment groups, with one negative control group and two active treatment groups. Each of the three treatment groups included three males and three females. The first group received a placebo formulation (i.e., deionized water) twice per day, via oral gavage. The second group received a once-daily dose of the capromorelin composition at a concentration of 3 mg/kg, via oral gavage. The third group received a twice-daily dose of the capromorelin composition at a concentration of 3 mg/kg, via oral gavage.
(§4) During the ten day study period, on an at least once-daily basis, each of the dogs was monitored for clinical observations, mortality, moribundity, body mass, acceptability/palatability, and food consumption. Serum samples were taken to measure capromorelin concentration, GH concentration, IGF-1 concentration, and cortisol concentration. Serum samples were taken on days 1, 2, 4, and 7 at −15 minutes (pre-dose), immediately prior to dosing (0 minutes) and 30, 45, 60, 90, 120, 240, 360, and/or 480 minutes post dosing. […]

[3] = Example 1 seven-day dosing regimen study: food consumption and body weight; assay type: in vivo, Beagle dogs
Method: (§5) A controlled, seven-day study was performed to assess the impact of different capromorelin-dosing regimens on the production of insulin-like growth factor 1 (hereinafter “IGF-1”), growth hormone (hereinafter “GH”), and cortisol. The different capromorelin-dosing regimens were also assessed for the impact on food intake and changes in body mass.
(§6) Eighteen adult non-naïve Beagle dogs (nine males and nine females) were divided into one of three treatment groups. Each of the three treatment groups included three males and three females. Group A, which was the control group, was dosed twice per day, via oral gavage, with a vehicle (deionized water alone) and was used as a baseline data point for comparison against the active treatment regimens. Group B comprised an active treatment group that received two treatments per day, via oral gavage, with a capromorelin-containing composition with a concentration of 3 mg/kg capromorelin per treatment. Finally, Group C comprised an active treatment group that received one treatment per day, via oral gavage, with a capromorelin-containing composition with a concentration of 6 mg/kg capromorelin per treatment.
(§7) During the ten day study period, on an at least once-daily basis, each of the dogs was monitored for clinical observations, mortality, morbidity, body mass, and food consumption. Serum samples were taken to measure capromorelin concentration, GH concentration, IGF-1 concentration, and cortisol concentration. Serum samples were taken on days 1, 2, 4, and 7 at −15 minutes (pre-dose), immediately prior to dosing (0 minutes) and 30, 45, 60, 90, 120, 240, 360, and/or 480 minutes post dosing. Additional blood samples were taken at 8 AM on Day 10 of the study to assess long-term impact of the active treatments.

[4] = Example 9: capromorelin concentration in serum; assay type: in vivo
Method: (§8) A four-day study was performed to further assess the pharmacokinetics of formulation 8 from Example 3 (i.e., the most “well-accepted” formulation) in cats. Moreover, the administration of formulation 8 was also analyzed to determine if administration of this formulation could induce sustained production of IGF-1 and relatively depressed, mitigated, or lower levels of cortisol. The different capromorelin-dosing regimens were also assessed for the impact on food intake and changes in body mass.
Twenty-four adult cats were divided into one of four treatment groups, with all four groups as active treatment groups. Each of the active treatment groups included 6 cats. The first group received a sterile injection of a capromorelin composition containing a 0.75 mg/kg concentration of capromorelin once per day during the four-day experiment. The second group received a once-daily sterile injection of a capromorelin composition at a concentration of 2 mg/kg. The third group received a once-daily dose of a capromorelin composition at a concentration of 2 mg/kg, via oral gavage. […]
During the seven day study period, on an at least once-daily basis, each of the cats was monitored for clinical observations, mortality, moribundity, body mass, acceptability/palatability, and food consumption. […]

cortisol = test: Example 4: serum cortisol concentration; assay type: in vivo, Beagle dogs; settings: approximately 0.5 h post treatment, days 1, 4 and 7
Method: as §2, §3, §4

[5] = Example 1: clinical observations / toxicological responses; assay type: in vivo; settings: 3 mg/kg twice daily or 6 mg/kg once daily, 7 days
Method: as §7

IGF-1 = test: Example 9: serum IGF-1 concentration; assay type: in vivo, cats
Method: as §8
Twenty-four adult cats were divided into one of four treatment groups, with all four groups as active treatment groups. Each of the active treatment groups included 6 cats. The first group received a sterile injection of a capromorelin composition containing a 0.75 mg/kg concentration of capromorelin once per day during the four-day experiment. The second group received a once-daily sterile injection of a capromorelin composition at a concentration of 2 mg/kg. The third group received a once-daily dose of a capromorelin composition at a concentration of 2 mg/kg, via oral gavage. The fourth group received a once-daily dose of a capromorelin composition containing capromorelin at a concentration of 4 mg/kg, via oral gavage.
as §1

[6] = tested on: insulin-like growth factor 1 (IGF-1); test: Example 1: serum IGF-1 concentration; assay type: in vivo, Beagle dogs
Method: as §5, §6
During the ten day study period, on an at least once-daily basis, each of the dogs was monitored for clinical observations, mortality, morbidity, body mass, and food consumption. […]

[7] = oral gavage, once-daily 6 mg/kg or twice-daily 3 mg/kg, 7 days

In the case of CN1N=C2CCN(C(=O)[C@@H](COCc3ccccc3)NC(=O)C(C)(C)N)C[C@@]2(Cc2ccccc2)C1=O.O=C(O)C(O)C(O)C(=O)O [capromorelin], the toxicological responses [1] is reported as “no toxicological responses were noted”, the “serum capromorelin by eight hours after administration” value [2] is reported as “decreased to near undetectable levels” and the “time after dosing at which serum capromorelin begins rising” value [2] is reported as “approximately 0.5 h”. For the same molecule, the “increase in weight over the seven day treatment period” value ([3]; male dogs, once-daily 6 mg/kg or twice-daily 3 mg/kg oral gavage) was 4-5%, the “food consumed relative to dogs receiving deionized water only” value [3, 7] was “consumed more food” and the “weight gain relative to dogs receiving deionized water only” value [3, 7] was “gained more weight”. The “levels of capromorelin in the serum” value ([4]; oral formulations) was “relatively low levels of capromorelin in the serum”, the “time post administration of peak capromorelin concentration in the serum” value ([4]; sterile injectable formulation) was “about 0.5 h” and the “cortisol concentrations in the serum relative to deionized water” value (cortisol) was “increased”. The toxicological responses [5] was “no toxicological responses were noted”, the “increase in serum IGF-1 concentration at eight hours post administration relative to time 0” value (IGF-1; 0.75 mg/kg sterile injectable, day 1) was “approximately 39.8%” and the “increase in serum IGF-1 concentration at eight hours post administration relative to time 0” value (IGF-1; 0.75 mg/kg sterile injectable, day 4) was “approximately 12.2%”. For the same molecule, the “increase in serum IGF-1 concentration at eight hours post administration relative to time 0” value (IGF-1; 2 mg/kg oral, day 1) was “approximately 26.6%”, the “increase in serum IGF-1 concentration at eight hours post administration relative to time 0” value (IGF-1; 2 mg/kg oral, day 4) was “approximately 7.6%” and the “increase in serum IGF-1 concentration at eight hours post administration relative to time 0” value (IGF-1; 2 mg/kg sterile injectable, day 1) was ~43.1%. The “increase in serum IGF-1 concentration at eight hours post administration relative to time 0” value (IGF-1; 2 mg/kg sterile injectable, day 4) was ~10.8%, the “increase in serum IGF-1 concentration at eight hours post administration relative to time 0” value (IGF-1; 4 mg/kg oral, day 1) was ~30.8% and the “increase in serum IGF-1 concentration at eight hours post administration relative to time 0” value (IGF-1; 4 mg/kg oral, day 4) was ~0.7%. The “serum IGF-1 levels versus deionized water three days after terminating treatment” value ([6]; Day 10) was “not significantly different” and the “serum IGF-1 levels relative to deionized water” value ([6]; days 2, 4 and 7 of treatment, both doses) was “remained consistently higher”.
